Counter-ions that a name gives are not always drawn.
Legend:
HepG2 = assay: ATP content test; format: cell-based, Human; conditions: HepG2, 100 μM, culture for one day, relative value to control (without drug)
Description: (§1) Human liver cancer-derived cell line HepG2 (ATCC No. HB-8065) was passaged using Dulbecco's Modified Eagle medium (DMEM; Invitrogen) containing 10% fetal bovine serum (FBS; TRACE SCIENTIFIC LTD.), 1 mmol/L sodium pyruvate (Invitrogen), 2 mmol/L L-glutamine (Invitrogen), 50 IU/mL penicillin (Invitrogen) and 50 μg/mL streptomycin (Invitrogen) at 5% CO2, 37° C. The test reagent was prepared with DMSO to 10 mM, and further diluted with DMEM medium containing 0.5% FBS, 1 mmol/L sodium pyruvate, 2 mmol/L L-glutamine, 50 IU/mL penicillin and 50 μg/mL streptomycin to a final concentration of DMSO of 0.1%. HepG2 (2×10^4 cells/well) was cultured on a 96 well white plate (Costar) with the test reagent at 5% CO2, 37° C. After culture for one day, the intracellular ATP content was measured using ATPLITE™ (PerkinElmer Life Sciences). The results are shown in Table 4 (n≧3, average value ±SD) as a relative value (%) to control (without addition of drug).

[1] = tested on: Caspase-3/7 activity in HepG2 cells; assay: Caspase-3/7 activity test; format: cell-based, Human; conditions: HepG2, 100 μM, culture for one day, relative to maximum with Staurosporine (100%) and no reagent (0%)
Description: as §1
The Caspase-3/7 activity in the cells cultured for one day by a method similar to that in Experimental Example 3 was measured using CASPASE-GLO 3/7 Assay (Promega). The results are shown in Table 4 (n≧3, average value ±SD) as relative activity (%) of each reagent based on the maximum value of Caspase-3/7 activity when exposed to Staurosporine (100%), and the activity without addition of a test reagent (0%).

[2] = biological target: T1, proton, potassium-adenosine triphosphatase (H+/K+-ATPase) (Sus scrofa, UniProt P19156); assay: Proton potassium-adenosine triphosphatase (H+,K+-ATPase) inhibitory activity test; format: biochemical; conditions: swine gastric mucous membrane microsomal fraction, pH 6.5, 37° C.
T1 construct: a gastric mucous membrane microsomal fraction was prepared from the stomach of swine; from tissue; host or cells: swine stomach, gastric mucous membrane microsomal fraction
Description: According to the method [Biochim. Biophys. Acta, 728, 31 (1983)] of Wallmark et al., a gastric mucous membrane microsomal fraction was prepared from the stomach of swine. First, the stomach was removed, washed with tap water, immersed in 3 mol/L brine, and the surface of the mucous membrane was wiped with a paper towel. The gastric mucous membrane was detached, chopped, and homogenized in a 0.25 mol/L saccharose solution (pH 6.8) containing 1 mmol/L EDTA and 10 mmol/L tris-hydrochloric acid using polytron (Kinematica). The obtained homogenate was centrifuged at 20,000×g for 30 min and the supernatant was centrifuged at 100,000×g for 90 min. The precipitate was suspended in 0.25 mol/L saccharose solution, superimposed on a 0.25 mol/L saccharose solution containing 7.5% Ficoll, and centrifuged at 100,000×g for 5 hr. The fraction containing the interface between the both layers was recovered, and centrifugally washed with 0.25 mol/L saccharose solution. The obtained microsomal fraction was used as a proton, potassium-adenosine triphosphatase standard product.
To 40 μL of a 50 mmol/L HEPES-tris buffer (5 mmol/L magnesium chloride, 10 mmol/L potassium chloride, 10 μmol/L valinomycin, pH=6.5) containing 2.5 μg/mL (based on the protein concentration) of the enzyme standard product was added a test compound (5 μL) dissolved in a 10% aqueous dimethyl sulfoxide solution, and the mixture was incubated at 37° C. for 30 min. The enzyme reaction was started by adding 5 μL of a 2 mmol/L adenosine triphosphate tris salt solution (50 mmol/L HEPES-tris buffer (5 mmol/L magnesium chloride, pH 6.5)). The enzyme reaction was carried out at 37° C. for 20 min, and 15 μL of a malachite green solution (0.12% malachite green solution in sulfuric acid (2.5 mol/L), 7.5% ammonium molybdate and 11% Tween 20 were mixed at a ratio of 100:25:2) was added to quench the reaction. After allowing to stand at room temperature for 15 min, the resulting reaction product of inorganic phosphorus with malachite green was colorimetrically determined at a wavelength of 620 nm. In addition, the amount of the inorganic phosphoric acid in the reaction solution free of potassium chloride was measured in the same manner, which was subtracted from the inorganic phosphoric acid amount in the presence of potassium chloride to determine the proton, potassium-adenosine triphosphatase activity. The inhibitory rate (%) was determined from the activity value of the control and the activity values of various concentrations of the test compound, and the 50% inhibitory concentration (IC50) of the proton, potassium-adenosine triphosphatase was determined.

T1 sequence (P19156 2-1034 limits assumed): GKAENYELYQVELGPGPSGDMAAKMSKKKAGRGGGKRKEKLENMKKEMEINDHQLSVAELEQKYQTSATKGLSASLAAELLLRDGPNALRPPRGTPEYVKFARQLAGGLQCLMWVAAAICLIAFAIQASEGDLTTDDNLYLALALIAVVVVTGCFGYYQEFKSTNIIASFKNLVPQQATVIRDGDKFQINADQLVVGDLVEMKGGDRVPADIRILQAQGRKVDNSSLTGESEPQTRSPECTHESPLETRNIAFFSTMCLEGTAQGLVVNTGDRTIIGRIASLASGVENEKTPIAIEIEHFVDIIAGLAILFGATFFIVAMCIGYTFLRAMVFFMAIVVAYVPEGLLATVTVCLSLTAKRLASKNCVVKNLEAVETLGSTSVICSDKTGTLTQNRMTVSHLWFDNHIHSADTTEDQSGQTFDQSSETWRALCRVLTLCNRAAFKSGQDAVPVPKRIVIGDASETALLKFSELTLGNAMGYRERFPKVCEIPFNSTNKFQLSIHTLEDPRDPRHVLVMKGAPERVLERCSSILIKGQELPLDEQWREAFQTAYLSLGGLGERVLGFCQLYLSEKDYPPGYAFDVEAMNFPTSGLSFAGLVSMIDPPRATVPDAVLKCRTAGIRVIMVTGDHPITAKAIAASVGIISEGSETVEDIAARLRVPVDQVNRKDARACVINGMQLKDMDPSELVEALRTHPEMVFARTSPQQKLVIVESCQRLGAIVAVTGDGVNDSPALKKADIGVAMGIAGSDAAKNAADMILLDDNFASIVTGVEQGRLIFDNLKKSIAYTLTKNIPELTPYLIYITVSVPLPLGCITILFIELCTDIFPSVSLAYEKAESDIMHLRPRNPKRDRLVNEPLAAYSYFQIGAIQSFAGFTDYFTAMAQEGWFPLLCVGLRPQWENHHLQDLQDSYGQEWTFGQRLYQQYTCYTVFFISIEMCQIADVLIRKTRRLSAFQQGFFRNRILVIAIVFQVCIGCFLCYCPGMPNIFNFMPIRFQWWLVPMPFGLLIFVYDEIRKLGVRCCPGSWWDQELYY
T1 sequence (P18434 whole entry partner): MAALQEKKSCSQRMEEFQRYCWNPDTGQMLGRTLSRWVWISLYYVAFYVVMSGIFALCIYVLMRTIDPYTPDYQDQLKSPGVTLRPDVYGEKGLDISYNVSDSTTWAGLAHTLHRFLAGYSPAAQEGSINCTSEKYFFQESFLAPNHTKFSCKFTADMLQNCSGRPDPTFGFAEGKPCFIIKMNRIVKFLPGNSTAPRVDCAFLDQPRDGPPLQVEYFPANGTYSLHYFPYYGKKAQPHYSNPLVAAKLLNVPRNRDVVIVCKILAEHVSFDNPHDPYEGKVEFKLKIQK

## CNCc1cn(S(=O)(=O)c2cc(C)ccn2)c(-c2cccnc2F)c1F [Example 2, 1-{4-Fluoro-5-(2-fluoropyridin-3-yl)-1-[(4-methylpyridin-2-yl)sulfonyl]-1H-pyrrol-3-yl}-N-methylmethanamine hydrochloride]
HepG2
  ATP content (%, 100 μM): 85.5%
[1]
  Caspase-3/7 activity (%, 100 μM): −1.1%
[2]
  IC50: 0.1 µM

## CNCc1cn(S(=O)(=O)c2ccc(F)cn2)c(-c2cccnc2F)c1F [Example 3, 1-{4-Fluoro-5-(2-fluoropyridin-3-yl)-1-[(5-fluoropyridin-2-yl)sulfonyl]-1H-pyrrol-3-yl}-N-methylmethanamine hydrochloride]
HepG2
  ATP content (%, 100 μM): 86.5%
[1]
  Caspase-3/7 activity (%, 100 μM): −0.5%
[2]
  IC50: 0.1 µM

## CNCc1cn(S(=O)(=O)c2cc(OC)ccn2)c(-c2cccnc2F)c1F [Example 4, 1-{4-Fluoro-5-(2-fluoropyridin-3-yl)-1-[(4-methoxypyridin-2-yl)sulfonyl]-1H-pyrrol-3-yl}-N-methylmethanamine hydrochloride]
HepG2
  ATP content (%, 100 μM): 84.5%
[1]
  Caspase-3/7 activity (%, 100 μM): −0.6%
[2]
  IC50: 0.14 µM

## CNCc1cn(S(=O)(=O)c2cncc(F)c2)c(-c2cccnc2F)c1F [Example 5, 1-{4-Fluoro-5-(2-fluoropyridin-3-yl)-1-[(5-fluoropyridin-3-yl)sulfonyl]-1H-pyrrol-3-yl}-N-methylmethanamine hydrochloride]
HepG2
  ATP content (%, 100 μM): 88.9%
[1]
  Caspase-3/7 activity (%, 100 μM): 0.3%
[2]
  IC50: 0.2 µM

## CNCc1cn(S(=O)(=O)c2ccc(C)nc2)c(-c2cccnc2F)c1F [Example 8, 1-{4-Fluoro-5-(2-fluoropyridin-3-yl)-1-[(6-methylpyridin-3-yl)sulfonyl]-1H-pyrrol-3-yl}-N-methylmethanamine 0.5 fumarate]
HepG2
  ATP content (%, 100 μM): 76.7%
[1]
  Caspase-3/7 activity (%, 100 μM): 2.4%
[2]
  IC50: 0.18 µM

## CNCc1cn(S(=O)(=O)c2ccc(OC)cn2)c(-c2cccnc2F)c1F [Example 10, 1-{4-Fluoro-5-(2-fluoropyridin-3-yl)-1-[(5-methoxypyridin-2-yl)sulfonyl]-1H-pyrrol-3-yl}-N-methylmethanamine hydrochloride]
HepG2
  ATP content (%, 100 μM): 80.0%
[1]
  Caspase-3/7 activity (%, 100 μM): 0.9%
[2]
  IC50: 0.28 µM

## CNCc1cn(S(=O)(=O)c2cc(C)ccn2)c(-c2cccnc2F)c1F [Example 23, 1-{4-Fluoro-5-(2-fluoropyridin-3-yl)-1-[(4-methylpyridin-2-yl)sulfonyl]-1H-pyrrol-3-yl}-N-methylmethanamine fumarate]
[2]
  IC50: 0.083 µM

## CNCc1cn(S(=O)(=O)c2cc(C)ccn2)c(-c2cccnc2F)c1F [Example 24, 1-{4-Fluoro-5-(2-fluoropyridin-3-yl)-1-[(4-methylpyridin-2-yl)sulfonyl]-1H-pyrrol-3-yl}-N-methylmethanamine succinate]
[2]
  IC50: 0.14 µM

## CNCc1cn(S(=O)(=O)c2cncc(F)c2)c(-c2cccnc2F)c1F [Example 25, 1-{4-Fluoro-5-(2-fluoropyridin-3-yl)-1-[(5-fluoropyridin-3-yl)sulfonyl]-1H-pyrrol-3-yl}-N-methylmethanamine 0.5 fumarate]
[2]
  IC50: 0.2 µM

## CNCc1cn(S(=O)(=O)c2cncc(F)c2)c(-c2cccnc2F)c1F [Example 26, 1-{4-Fluoro-5-(2-fluoropyridin-3-yl)-1-[(5-fluoropyridin-3-yl)sulfonyl]-1H-pyrrol-3-yl}-N-methylmethanamine succinate]
[2]
  IC50: 0.13 µM

## CNCc1cn(S(=O)(=O)c2cncc(F)c2)c(-c2cccnc2F)c1F [Example 27, 1-{4-Fluoro-5-(2-fluoropyridin-3-yl)-1-[(5-fluoropyridin-3-yl)sulfonyl]-1H-pyrrol-3-yl}-N-methylmethanamine L-tartrate]
[2]
  IC50: 0.16 µM

Reference: US8592597B2, “Pyrrole compounds” (Takeda Pharmaceutical Company Limited, priority 2008, dated 2013)
